Data as given in PMC7567097, “A nanoluciferase SARS-CoV-2 for rapid neutralization testing and screening of anti-infective drugs for COVID-19” (Nature Communications, 2020).
Where two headings read alike, the source gives them in different places.

Tests used:
[1] = system: SARS-CoV-2-Nluc; experiment: microbe, parasite or virus in culture; assay type: cell-based
[2] = system: A549-hACE2 cells
[3] = Cytotoxicity assay (CCK-8, 72 h) in Vero E6 cells; assay type: cell-based, African green monkey; conditions: African green monkey, Vero E6 cells; for viability at 72 h: Vero, two replicates, read-out: cell viability (% of DMSO control)
[4] = system: Vero E6 cells; experiment: Cytotoxicity assay (CCK-8, 72 h) in Vero E6 cells; assay type: cell-based, African green monkey; conditions: Vero, two replicates
[5] = system: COVID-19; set-up: method as in PMID 32649078; conditions: 1063 patients hospitalized with COVID-19; placebo group 15 days; cited from earlier work
[6] = system: SARS-CoV-2-Nluc; experiment: microbe, parasite or virus in culture; assay type: cell-based; conditions: Severe acute respiratory syndrome coronavirus 2, Vero C1008, 48 h
[7] = in vitro; conditions: human; for viability: cell viability (% of DMSO control)

Structure (SMILES): CCC(CC)COC(=O)[C@H](C)N[P@](=O)(OC[C@H]1O[C@@](C#N)(c2ccc3c(N)ncnn23)[C@H](O)[C@@H]1O)Oc1ccccc1 [Remdesivir]
- EC50 ([1]; Severe acute respiratory syndrome coronavirus 2, 48 h): 0.115 ± 0.007 µM
- EC50 ([1]; Severe acute respiratory syndrome coronavirus 2, read-out: EC50 (µM) Replicate 1): 0.11 µM
- EC50 ([1]; Severe acute respiratory syndrome coronavirus 2, read-out: EC50 (µM) Replicate 2): 0.12 µM
- cell viability (% of DMSO control) ([2]; Concentration 0.00152416): 98.72%
- cell viability (% of DMSO control) ([2]; Concentration 0.00457247): 97.64%
- cell viability (% of DMSO control) ([2]; Concentration 0.0137174): 95.55%
- cell viability (% of DMSO control) ([2]; Concentration 0.0411523): 98.85%
- cell viability (% of DMSO control) ([2]; Concentration 0.123457): 98.18%
- cell viability (% of DMSO control) ([2]; Concentration 0.37037): 92.18%
- cell viability (% of DMSO control) ([2]; Concentration 1.11111): 95.21%
- cell viability (% of DMSO control) ([2]; Concentration 3.33333): 90.42%
- cell viability (% of DMSO control) ([2]; Concentration 10): 87.86%
- CC50 ([2]; human): 32.7 ± 5.2 µM
- viability at 72 h ([3]; Concentration 0.00152416): 100%
- viability at 72 h ([3]; Concentration 0.00457247): 102%
- viability at 72 h ([3]; Concentration 0.0137174): 91.3%
- viability at 72 h ([3]; Concentration 0.0411523): 104%
- viability at 72 h ([3]; Concentration 0.123457): 80.3%
- viability at 72 h ([3]; Concentration 0.37037): 80.3%
- viability at 72 h ([3]; Concentration 1.11111): 102%
- viability at 72 h ([3]; Concentration 3.33333): 87.9%
- viability at 72 h ([3]; Concentration 10): 68%
- CC50 at 72 h ([3]; 3-day cytotoxicity): > 50 µM
- cell viability (% of DMSO control) ([4]; Concentration 0.00152416): 98.69%
- cell viability (% of DMSO control) ([4]; Concentration 0.00457247): 100.09%
- cell viability (% of DMSO control) ([4]; Concentration 0.0137174): 99.13%
- cell viability (% of DMSO control) ([4]; Concentration 0.0411523): 93.89%
- cell viability (% of DMSO control) ([4]; Concentration 0.123457): 91.88%
- cell viability (% of DMSO control) ([4]; Concentration 0.37037): 90.48%
- cell viability (% of DMSO control) ([4]; Concentration 1.11111): 90.39%
- cell viability (% of DMSO control) ([4]; Concentration 3.33333): 89.52%
- cell viability (% of DMSO control) ([4]; Concentration 10): 70.92%
- recovery time [5]: 11 days
- EC50 [6]: 1.28 µM
- CC50 ([7]; CC50): 32.5 µM
- CC50 ([7]; CC50 (µM) Replicate 1): 29 µM
- CC50 ([7]; CC50 (µM) Replicate 2): 36.4 µM
- viability ([7]; Concentration 0.00152416): 100%
- viability ([7]; Concentration 0.00457247): 99.8%
- viability ([7]; Concentration 0.0137174): 102%
- viability ([7]; Concentration 0.0411523): 102%
- viability ([7]; Concentration 0.123457): 101%
- viability ([7]; Concentration 0.37037): 96.9%
- viability ([7]; Concentration 1.11111): 100%
- viability ([7]; Concentration 3.33333): 101%
- viability ([7]; Concentration 10): 84.9%
